Measurements taken from PubChem BioAssay AID330 (DTP/NCI, 2004).
Several values for one entry are separate records, joined by “and”; a condition that tells them apart may be missing. Identical values can stand only once. Toxic doses and inconclusive results are not listed. How the source made its calls: active means survival T/C of 150% or more; inactive means T/C below 125% in these data.

Test system: P388 leukemia ip, CD2F1 mice, survival T/C
Experiment: NCI In Vivo Anticancer Drug Screen. Data for tumor model P388 Leukemia (intraperitoneal) in CD2F1 (CDF1) mice
Details: endpoint: median survival time, higher = longer survival
Outline: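 Mice carrying the transplanted tumor received test compound or vehicle. Survival was recorded in each group, and the value is the treated-group measurement divided by that of the vehicle-treated control group.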

[1] = dose: 50.0 mg/kg/injection, schedule: Q01DX009 (ip), vehicle: saline with Tween-80
[2] = dose: 100.0 mg/kg/injection, schedule: Q01DX009 (ip), vehicle: saline with Tween-80
[3] = dose: 200.0 mg/kg/injection, schedule: Q01DX009 (ip), vehicle: saline with Tween-80
[4] = dose: 60.0 mg/kg/injection, schedule: Q01DX005 (ip), vehicle: Klucel (hydroxypropylcellulose) (HPC)
[5] = dose: 60.0 mg/kg/injection, schedule: Q01DX005 (ip), vehicle: saline with Tween-80
[6] = dose: 120.0 mg/kg/injection, schedule: Q01DX005 (ip), vehicle: saline with Tween-80
[7] = dose: 240.0 mg/kg/injection, schedule: Q01DX005 (ip), vehicle: saline with Tween-80

Measured: T/C

CCNc1ncc2c(n1)N(CC)C(=O)/C(=C\C(=O)OC)N2
inactive: dose: 37.5 mg/kg/injection, schedule: Q01DX009 (ip), vehicle: saline with Tween-80 94 % of control | dose: 150.0 mg/kg/injection, schedule: Q01DX009 (ip), vehicle: saline with Tween-80 93 % of control

Cc1c(Br)sc2c1ccc1ccccc12
inactive: [1] 101 % of control | [2] 100 % of control | [3] 109 % of control

O=C(Nc1cccc(NC(=O)Nc2cc(C(F)(F)F)ccc2Cl)c1)Nc1cc(C(F)(F)F)ccc1Cl
inactive: [4] 89 % of control | dose: 120.0 mg/kg/injection, schedule: Q01DX005 (ip), vehicle: Klucel (hydroxypropylcellulose) (HPC) 91 % of control | dose: 240.0 mg/kg/injection, schedule: Q01DX005 (ip), vehicle: Klucel (hydroxypropylcellulose) (HPC) 100 % of control

CCCCCCCCCC(O)(CSc1ccccc1)CSc1ccccc1
inactive: [1] 99 % of control | [2] 100 % of control | [3] 114 % of control

COc1cccc(C2=NC(=C3CCCCC3)C(=O)O2)c1
inactive: [5] 105 % of control | [6] 105 % of control | [7] 100 % of control

CCc1ccc(/C=C/C(=O)C(C)CN(C)C)cc1 (stereo not given)
inactive: dose: 60.0 mg/kg/injection, schedule: Q01DX005 (ip), vehicle: saline 105 % of control | dose: 120.0 mg/kg/injection, schedule: Q01DX005 (ip), vehicle: saline 118 % of control

O=[N+]([O-])c1ccc(-c2nc3ccc(F)cc3[nH]2)o1
inactive: [5] 101 % of control | [6] 97 % of control | [7] 104 % of control

NC(=O)CCC(N)C(=O)O.[Cl-].[Cl-].[Cl-].[Cl-].[Pt+2] (stereo not given)
inactive: dose: 6.25 mg/kg/injection, schedule: Q01DX009 (ip), vehicle: saline 107 % of control | dose: 11.0 mg/kg/injection, schedule: Q01DX009 (ip), vehicle: saline 106 % of control | dose: 12.5 mg/kg/injection, schedule: Q01DX009 (ip), vehicle: saline 110 % of control
active: dose: 6.25 mg/kg/injection, schedule: Q01DX009 (ip), vehicle: water 153 % of control | dose: 12.5 mg/kg/injection, schedule: Q01DX009 (ip), vehicle: water 154 % of control and 155 % of control | dose: 25.0 mg/kg/injection, schedule: Q01DX009 (ip), vehicle: water 155 % of control | dose: 37.5 mg/kg/injection, schedule: Q01DX009 (ip), vehicle: saline 157 % of control | dose: 50.0 mg/kg/injection, schedule: Q01DX009 (ip), vehicle: saline 152 % of control

O=c1[nH]nc(-c2ccc(Cl)cc2)c2cc(Cl)c(Cl)cc12
inactive: dose: 3.12 mg/kg/injection, schedule: Q04DX002 (ip), vehicle: distilled water + Tween-80 90 % of control | dose: 6.25 mg/kg/injection, schedule: Q04DX002 (ip), vehicle: distilled water + Tween-80 96 % of control | dose: 12.5 mg/kg/injection, schedule: Q04DX002 (ip), vehicle: distilled water + Tween-80 93 % of control | dose: 25.0 mg/kg/injection, schedule: Q04DX002 (ip), vehicle: distilled water + Tween-80 93 % of control | dose: 50.0 mg/kg/injection, schedule: Q04DX002 (ip), vehicle: distilled water + Tween-80 90 % of control | dose: 100.0 mg/kg/injection, schedule: Q04DX002 (ip), vehicle: distilled water + Tween-80 95 % of control | dose: 200.0 mg/kg/injection, schedule: Q04DX002 (ip), vehicle: distilled water + Tween-80 102 % of control

CC(=O)Nc1ccc2nc3ccc(NC(C)=O)cc3[n+](-c3ccccc3)c2c1
active: dose: 31.3 mg/kg/injection, schedule: Q01DX010 (ip), vehicle: saline 177 % of control | dose: 62.5 mg/kg/injection, schedule: Q01DX010 (ip), vehicle: saline 204 % of control | dose: 125.0 mg/kg/injection, schedule: Q01DX010 (ip), vehicle: saline 200 % of control

CNC(=S)NC(C)(C)C
inactive: dose: 15.0 mg/kg/injection, schedule: Q01DX005 (ip), vehicle: Klucel (hydroxypropylcellulose) (HPC) 97 % of control | dose: 30.0 mg/kg/injection, schedule: Q01DX005 (ip), vehicle: Klucel (hydroxypropylcellulose) (HPC) 97 % of control | [4] 103 % of control and 98 % of control

COC1(Cl)CC1C#N (stereo not given)
inactive: [1] 117 % of control | [2] 96 % of control | [3] 105 % of control

COC(=O)c1nnn(-c2cc(Cl)ccc2Cl)c1N
inactive: [5] 91 % of control

Cc1c(-c2c(Cl)cccc2Cl)noc1CN(C)C
inactive: [5] 101 % of control | [6] 100 % of control | [7] 92 % of control

COc1cc2c(cc1OC)C(=O)OC(=O)C2
inactive: dose: 50.0 mg/kg/injection, schedule: Q01DX005 (ip), vehicle: Klucel (hydroxypropylcellulose) (HPC) 100 % of control | dose: 100.0 mg/kg/injection, schedule: Q01DX005 (ip), vehicle: Klucel (hydroxypropylcellulose) (HPC) 92 % of control | dose: 200.0 mg/kg/injection, schedule: Q01DX005 (ip), vehicle: Klucel (hydroxypropylcellulose) (HPC) 95 % of control
